Results published in the supplement of paper PMC10307832.

Columns and labels:
Test in all cases: relative viability (nuclei count vs DMSO), 5 days (fraction); higher = more cells survive
[1] = compound: C[C@@]1(C(=O)Nc2ccc(F)nc2)CCCN1c1nc(Nc2cc(C3CC3)n[nH]2)c2cccn2n1 + CS(=O)(=O)CCNCc1ccc(-c2ccc3ncnc(Nc4ccc(OCc5cccc(F)c5)c(Cl)c4)c3c2)o1 [Lapatinib] (partner 2 µM)
Procedure, shortened: (§1)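 Lung cancer cell lines in 1536-well plates were dosed by pin tool the day after seeding, either with one drug alone or with a fixed anchor-drug dose plus five library-drug doses (not always all listed) in √10 steps. After 5 days, cells were fixed and their nuclei stained in one step (final 0.05% Triton X-100, 1% formaldehyde, 1 ug/ml Hoechst), then counted on 4× images. Relative viability is the nuclei count in treated wells divided by that in vehicle wells. Values are medians of duplicate plates.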

[2] = compound: C[C@@]1(C(=O)Nc2ccc(F)nc2)CCCN1c1nc(Nc2cc(C3CC3)n[nH]2)c2cccn2n1 + CC(=O)Nc1cccc(-n2c(=O)n(C3CC3)c(=O)c3c(Nc4ccc(I)cc4F)n(C)c(=O)c(C)c32)c1 [Trametinib] (partner 0.02 µM)
Procedure, shortened: as §1

[3] = compound: C[C@@]1(C(=O)Nc2ccc(F)nc2)CCCN1c1nc(Nc2cc(C3CC3)n[nH]2)c2cccn2n1 + Nc1ncn([C@H]2C[C@H](O)[C@@H](CO)O2)c(=O)n1 [Decitabine] (partner 2 µM)
Procedure, shortened: as §1

Motesanib + Pemetrexed = compound: CC1(C)CNc2cc(NC(=O)c3cccnc3NCc3ccncc3)ccc21 [Motesanib] + Nc1nc2[nH]cc(CCc3ccc(C(=O)N[C@@H](CCC(=O)O)C(=O)O)cc3)c2c(=O)[nH]1 [Pemetrexed] (partner 0.2 µM)
Procedure, shortened: as §1

## UMC-11
[1]; first compound 0.04 µM
  relative viability: 1.02
[1]; first compound 0.1265 µM
  relative viability: 1.02
[1]; first compound 0.4 µM
  relative viability: 0.826
[1]; first compound 1.265 µM
  relative viability: 0.805
[2]; first compound 0.04 µM
  relative viability: 0.703
[2]; first compound 0.1265 µM
  relative viability: 0.671
[2]; first compound 0.4 µM
  relative viability: 0.651
[2]; first compound 1.265 µM
  relative viability: 0.648
[3]; first compound 0.04 µM
  relative viability: 0.638
[3]; first compound 0.1265 µM
  relative viability: 0.45
[3]; first compound 0.4 µM
  relative viability: 0.317
[3]; first compound 1.265 µM
  relative viability: 0.646
Motesanib + Pemetrexed; first compound 0.01 µM
  relative viability: 0.834
Motesanib + Pemetrexed; first compound 0.03162 µM
  relative viability: 0.696
Motesanib + Pemetrexed; first compound 0.1 µM
  relative viability: 0.575
Motesanib + Pemetrexed; first compound 0.3162 µM
  relative viability: 0.608
Motesanib + Pemetrexed; first compound 1 µM
  relative viability: 0.556
